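Where inhibition never reached the appropriate level, the endpoint shown equals the highest concentration tested. Otherwise, values were interpolated linearly from a five-concentration, 48-hour dose response in 96-well plates. At the TGI there is no net growth.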 Where a SMILES comes first, the peptide text is derived from it. The star is where a group is joined. Boc = CC(C)(C)OC(=O)*; OSu = O=C1CCC(=O)N1O*
Tests used:
Assay in all cases: inhibition of tumour cell growth, NCI panel, 48 h
[1] = test system: MOLT-4 leukemia
[2] = test system: CAKI-1 renal
[3] = test system: UO-31 renal
[4] = test system: RPMI-8226 leukemia
[5] = test system: PC-3 prostate
[6] = test system: SF-268 CNS
[7] = test system: 786-0 renal
[8] = test system: EKVX NSCLC
[9] = test system: K-562 leukemia
[10] = test system: MDA-N
[11] = test system: HOP-92 NSCLC

| SMILES | TGI [1] [µM] | TGI [2] [µM] | TGI [3] [µM] | TGI [4] [µM] | TGI [5] [µM] | TGI [6] [µM] | TGI [7] [µM] | TGI [8] [µM] | TGI [9] [µM] | TGI [10] [µM] | TGI [11] [µM] |
| --- | --- | --- | --- | --- | --- | --- | --- | --- | --- | --- | --- |
| O=C1CC(O)c2c1csc2Br (stereo not given) | 55.3 | > 100 | 53.3 | 74.5 | > 100 | 88.6 | 51.1 | > 100 | 76.7 | 83.4 |  |
| CC(C)(C)OC(=O)NC(Cc1ccc(O)cc1)C(=O)NC(CCCCN)C(=O)NC(Cc1ccc(O)cc1)C(=O)NC(CCCCN)C(=O)ON1C(=O)CCC1=O (stereo not given) (Boc-YKYK-OSu; configuration not given here) | > 100 |  | > 100 | > 100 | > 100 |  | > 100 | > 100 | > 100 | > 100 | > 100 |
| O=C1CC2C=CC(O)C(C1)C2 (stereo not given) | > 100 |  | > 100 | > 100 | > 100 | > 100 | > 100 |  | > 100 | > 100 |  |
| C#CCNC(=O)NC(CCCNC(=O)OCc1ccccc1)C(=O)OCc1ccccc1 (stereo not given) | > 100 | 87.5 | > 100 | > 100 |  | > 100 | > 100 | > 100 | > 100 |  | > 100 |
| O=C1CC(C(O)CO)CC(=O)N1 (stereo not given) |  | > 100 | > 100 | > 100 | > 100 | > 100 | > 100 |  | > 100 | > 100 | > 100 |
| COC1O[C@H]2CCN(C(=O)OCc3ccccc3)[C@H]2[C@H]1OCc1ccccc1 (stereo not given in full) | > 100 | > 100 | 97.7 | > 100 |  | > 100 | > 100 | > 100 | > 100 |  | > 86 |
| CCOC(=O)C1=C(C)N(c2ccccc2)C2=C(C(=O)N(c3ccccc3)C2c2ccccc2)C1c1ccccc1 (stereo not given) | > 100 | > 100 | > 100 | > 100 |  | > 100 | > 100 | > 100 | > 100 |  | > 100 |
| CC(C)(C)OC(=O)NCCCCC(NC(=O)OCc1ccccc1)C(N)=O (stereo not given) | > 100 | > 100 | > 100 | > 100 | > 100 | > 100 | > 100 | > 100 | > 100 | > 100 |  |
| COC(=O)c1cc(CC(C)C)c2c(c1)[nH]c1ccccc12 | > 100 | > 100 | > 100 |  |  | > 100 | > 100 | > 100 | > 100 |  | > 100 |
| Cc1cc(=O)cc2sc3c(C)cccc3nc1-2 | 93.3 | 83 | > 100 | 97 |  | 26.3 | 32.2 |  | 91.2 |  | 85.9 |
| [N-]=[N+]=Nc1c(Cl)c(=O)n(-c2ccccc2)c2ccccc12 | 38.4 | 50.5 | 52.6 | > 100 | 70 | 43.9 | 38.6 |  | 49 | 52.9 | 38.3 |
| Cc1c(Cl)cccc1NC(=O)C(=O)C1C(=O)CC(C)(C)CC1=O | > 100 | > 100 | > 100 | > 100 |  | > 100 | > 100 | > 100 | > 100 |  | > 100 |
| COc1cc(COC(=O)N[C@H](C(=O)O)C(C)(C)C)c([N+](=O)[O-])cc1OC | > 100 |  | > 100 | > 100 | > 100 | > 100 | > 100 | > 100 | > 100 | > 100 | > 100 |
| Cc1ccc(S(=O)(=O)N2CCN3C(=O)c4ccccc4C32c2ccc(F)cc2)cc1 (stereo not given) | 65.9 | > 100 | > 100 | 83.3 | > 100 | > 100 | > 100 | > 100 | > 100 | > 100 |  |
| CCCN=C1CC(C)Nc2ccccc2N1 (stereo not given) | > 100 | > 100 | > 100 | > 100 | > 100 | > 100 | > 100 | > 100 | > 100 | > 100 |  |
| CCCCc1c(O)nc(Nc2nc3ccccc3[nH]2)[nH]c1=O | > 100 | > 100 |  | > 100 | > 100 | > 100 | > 100 | > 100 | > 100 | > 100 |  |
| O=C(/C=C/c1ccccc1)/C=C/c1ccccc1O | 63.1 | 64.6 | 31.8 | 43.8 |  | 79.4 | 32.4 | 39.8 | 38.9 |  | > 100 |
| CCOc1ccc(N/C(=C(/C(Cl)=C(/Cl)NCCN)[N+](=O)[O-])n2nnc3ccccc32)cc1 | > 100 | 34.8 | > 100 | > 100 | > 100 | 34.5 | > 100 | > 100 | > 100 | > 100 |  |
| O=c1c2c3ccccc3[nH]c2c2cccc3c2n1CCC3 | 86 |  |  |  | > 100 | > 100 | > 100 | 95.1 | > 100 | > 100 | > 100 |
| CC(C)(C)OC(=O)NC(C)(C)C(=O)NCCC(=O)O | > 100 | > 100 | > 100 | > 100 | > 100 | > 100 | > 100 | > 100 | > 100 |  |  |
| COc1ccc(/C(=C/n2ccnc2)C(=O)c2ccc(OC)c(OC)c2)cc1 | > 100 | > 100 | > 100 | > 100 |  | > 100 | > 100 | > 100 | > 100 |  | > 100 |
| Cc1c(/C=N\NC(=S)N2CCN(C(=S)N/N=C\c3c(C)n(C)n(-c4ccccc4)c3=O)CC2)c(=O)n(-c2ccccc2)n1C | > 100 | > 100 | > 100 |  | > 100 | > 100 | > 100 | > 100 |  |  | > 100 |

Source: PubChem BioAssay (NCI)
